What was measured:
[1] = test system: crabgrass, large; assay: Test C preemergence; format: in vivo, Digitaria sanguinalis; conditions: for Crabgrass, Large plant response rating: preemergence
How it was run: (§1)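 Visual rating, 0–100 scale (0 no effect, 100 complete control), vs untreated controls after 13–15 d greenhouse. Pre: seeds in loam/sand, treated at sowing. Post: plants in peat-based mix, 1- to 4-leaf (2–18 cm). Solvent + surfactant formulation, non-phytotoxic.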

[2] = test system: nutsedge, yellow; assay: Test C preemergence; format: in vivo, Cyperus esculentus; conditions: for Nutsedge, Yellow plant response rating: preemergence
How it was run: as §1

[3] = test system: barnyardgrass; assay: Test A preemergence; format: in vivo, Echinochloa crus-galli; conditions: preemergence
How it was run: (§2)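 After sowing in a sand–loam mix, pots received compound preemergence by directed soil spray, or postemergence once plants reached the one- to two-leaf stage (2–10 cm). Formulation contained surfactant in a non-phytotoxic solvent. Injury was scored visually after ~10 greenhouse days, 0–100 scale.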

[4] = test system: corn; assay: Test A postemergence; format: in vivo, Zea mays
How it was run: as §2

[5] = test system: soybean; assay: Test C postemergence; format: in vivo, Glycine max
How it was run: as §1

[6] = test system: pigweed; assay: Test A postemergence; format: in vivo, Amaranthus retroflexus
How it was run: as §2

[7] = test system: barnyardgrass; assay: Test A postemergence; format: in vivo, Echinochloa crus-galli
How it was run: as §2

[8] = test system: oat, wild; assay: Test C postemergence; format: in vivo, Avena fatua
How it was run: as §1

[9] = test system: velvetleaf; assay: Test C preemergence; format: in vivo, Abutilon theophrasti; conditions: for Velvetleaf plant response rating: preemergence
How it was run: as §1

[10] = test system: barnyardgrass; assay: Test C preemergence; format: in vivo, Echinochloa crus-galli; conditions: for Barnyardgrass plant response rating: preemergence
How it was run: as §1

[11] = test system: ryegrass, Italian; assay: Test C postemergence; format: in vivo, Lolium multiflorum
How it was run: as §1

[12] = test system: morningglory; assay: Test C preemergence; format: in vivo, Ipomoea coccinea; conditions: for Morningglory plant response rating: preemergence
How it was run: as §1

[13] = test system: oilseed rape; assay: Test C postemergence; format: in vivo, Brassica napus
How it was run: as §1

[14] = test system: kochia; assay: Test C postemergence; format: in vivo, Kochia scoparia
How it was run: as §1

[15] = 31 g ai/ha, visual rating, scale 0 to 100 (0 no effect, 100 complete control), 13 to 15 days
[16] = 62 g ai/ha, scale 0 to 100 (0 no effect, 100 complete control), 13 to 15 days
[17] = 125 g ai/ha, scale 0 to 100, 0 is no effect, 100 is complete control
[18] = Postemergence, 500 g ai/ha, 0 to 100 scale (0 no effect, 100 complete control)
[19] = postemergence, 125 g ai/ha, about 10 days, visual rating on 0 to 100 scale (0 no effect, 100 complete control)
[20] = Postemergence, 31 g ai/ha, visually evaluated after 13 to 15 days
[21] = postemergence, 62 g ai/ha, scale 0 to 100
[22] = postemergence, 250 g ai/ha, scale 0 to 100 (0 no effect, 100 complete control)
[23] = postemergence, 125 g ai/ha, scale 0 to 100, 0 no effect, 100 complete control

CCc1cc(C(=O)NOC(C)C)nn1Cc1ccnc(OC(F)F)c1 [Compound 126]
Plant response rating (scale of 0 to 100), Crabgrass, Large ([1]; Preemergence, 250 g ai/ha): 100 | Crabgrass, Large plant response rating [1, 15]: 90 | Crabgrass, Large plant response rating [1, 16]: 100 | Crabgrass, Large plant response rating [1, 17]: 100 | Plant response rating (scale of 0 to 100), Nutsedge, Yellow ([2]; Preemergence, 250 g ai/ha): 90 | Nutsedge, Yellow plant response rating [2, 15]: 25 | Nutsedge, Yellow plant response rating [2, 16]: 45 | Nutsedge, Yellow plant response rating [2, 17]: 75 | Barnyardgrass plant response rating ([3]; 125 g ai/ha, visual injury, 0 to 100 scale, approx. 10 days): 90 | Barnyardgrass plant response rating ([3]; 500 g ai/ha, visual injury after approx. 10 days, 0 to 100 scale (0 no effect, 100 complete control)): 100 | Corn plant response rating [4, 18]: 90 | Corn plant response rating [4, 19]: 90 | Plant response rating (scale of 0 to 100 where 0 is no effect and 100 is complete control), Soybean [5, 20]: 40 | Soybean plant response rating [5, 21]: 45 | Plant response rating, Soybean [5, 22]: 65 | Plant response rating, Soybean [5, 23]: 55 | Pigweed plant response rating [6, 18]: 90 | Pigweed plant response rating [6, 19]: 90 | Barnyardgrass plant response rating [7, 18]: 100 | Barnyardgrass plant response rating [7, 19]: 90 | Plant response rating (scale of 0 to 100 where 0 is no effect and 100 is complete control), Oat, Wild [8, 20]: 35 | Oat, Wild plant response rating [8, 21]: 15 | Plant response rating, Oat, Wild [8, 22]: 50 | Plant response rating, Oat, Wild [8, 23]: 20 | Plant response rating (scale of 0 to 100), Velvetleaf ([9]; Preemergence, 250 g ai/ha): 100 | Velvetleaf plant response rating [9, 15]: 65 | Velvetleaf plant response rating [9, 16]: 85 | Velvetleaf plant response rating [9, 17]: 100 | Plant response rating (scale of 0 to 100), Barnyardgrass ([10]; Preemergence, 250 g ai/ha): 100 | Barnyardgrass plant response rating ([10]; 31 g ai/ha, scale 0 to 100 (0 no effect, 100 complete control), 13 to 15 days): 75 | Barnyardgrass plant response rating [10, 16]: 100 | Barnyardgrass plant response rating [10, 17]: 100 | Plant response rating (scale of 0 to 100 where 0 is no effect and 100 is complete control), Ryegrass, Italian [11, 20]: 5 | Ryegrass, Italian plant response rating [11, 21]: 5 | Plant response rating, Ryegrass, Italian [11, 22]: 15 | Plant response rating, Ryegrass, Italian [11, 23]: 10 | Plant response rating (scale of 0 to 100), Morningglory ([12]; Preemergence, 250 g ai/ha): 100 | Morningglory plant response rating [12, 15]: 55 | Morningglory plant response rating [12, 16]: 70 | Morningglory plant response rating [12, 17]: 98 | Plant response rating (scale of 0 to 100 where 0 is no effect and 100 is complete control), Oilseed Rape [13, 20]: 45 | Oilseed Rape plant response rating [13, 21]: 50 | Plant response rating, Oilseed Rape [13, 22]: 70 | Plant response rating, Oilseed Rape [13, 23]: 60 | Plant response rating (scale of 0 to 100 where 0 is no effect and 100 is complete control), Kochia [14, 20]: 55 | Kochia plant response rating [14, 21]: 50 | Plant response rating, Kochia [14, 22]: 65 | Plant response rating, Kochia [14, 23]: 65

Reference: patent US20150105252A1, “SUBSTITUTED PYRAZOLES AS HERBICIDES” (E I DU PONT DE NEMOURS AND COMPANY, priority 2013, published 2015)
